We go through eleven compounds from publication PMC11861015, “Discovery of novel naphthalene-based diarylamides as pan-Raf kinase inhibitors with promising anti-melanoma activity: rational design, synthesis, in vitro and in silico screening” (Archives of Pharmacal Research, 2025).

In one assay the target is Raf kinase enzyme. On the set-up: method as in Buchstaller et al. [2011]. As to conditions: ref Buchstaller et al. [2011]; read-out: IC50 against the Raf kinase enzyme; cited from earlier work.
For a further assay, the target named is c-Raf (Homo sapiens, UniProt P04049). The assay is described as follows: In vitro biochemical kinase assay (Kinase HotSpot, Reaction Biology), one-point and 10-dose. Particulars: ATP 10 μM; for inhibition at 10 µM: 10 µM compound, duplicate, read-out: In vitro protein kinase inhibition values (%) c-Raf.
c-Raf, sequence (P04049 whole entry): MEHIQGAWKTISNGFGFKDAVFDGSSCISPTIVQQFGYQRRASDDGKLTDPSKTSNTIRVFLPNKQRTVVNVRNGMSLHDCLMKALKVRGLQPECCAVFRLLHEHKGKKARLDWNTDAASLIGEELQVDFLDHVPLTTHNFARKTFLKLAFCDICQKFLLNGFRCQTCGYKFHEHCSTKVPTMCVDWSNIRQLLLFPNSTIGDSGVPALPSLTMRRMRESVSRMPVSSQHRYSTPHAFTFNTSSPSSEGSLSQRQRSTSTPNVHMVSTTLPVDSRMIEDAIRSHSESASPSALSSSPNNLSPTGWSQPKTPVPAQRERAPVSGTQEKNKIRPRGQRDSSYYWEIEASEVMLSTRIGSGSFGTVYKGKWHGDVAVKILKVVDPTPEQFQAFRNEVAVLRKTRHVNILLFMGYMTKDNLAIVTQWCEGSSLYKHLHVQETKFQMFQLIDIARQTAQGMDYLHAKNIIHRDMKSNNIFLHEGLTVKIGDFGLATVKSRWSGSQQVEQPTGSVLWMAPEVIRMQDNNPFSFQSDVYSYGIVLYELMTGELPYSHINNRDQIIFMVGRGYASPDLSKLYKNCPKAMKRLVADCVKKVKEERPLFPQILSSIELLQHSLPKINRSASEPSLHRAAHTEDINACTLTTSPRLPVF
Assay [1] relates to melanoma cell line A375. The assay can be described thus: Cell cycle analysis. As to conditions: A375 cells treated at IC50.
The next assay concerns the target T1, B-Raf^V600E (Homo sapiens, UniProt P15056, V600E).
T1 construct: purchased Reaction Biology Co. (Kinase HotSpot service)
The assay is described as follows: In vitro biochemical kinase assay (Kinase HotSpot, Reaction Biology), one-point and 10-dose. As to conditions: ATP 10 μM; for inhibition at 10 µM: 10 µM compound, duplicate, read-out: In vitro protein kinase inhibition values (%) B-Raf^V600E.

Another assay deals with T2, B-Raf^WT (Homo sapiens, UniProt P15056).
T2 construct: purchased Reaction Biology Co. (Kinase HotSpot service)
T2 sequence (P15056 whole entry): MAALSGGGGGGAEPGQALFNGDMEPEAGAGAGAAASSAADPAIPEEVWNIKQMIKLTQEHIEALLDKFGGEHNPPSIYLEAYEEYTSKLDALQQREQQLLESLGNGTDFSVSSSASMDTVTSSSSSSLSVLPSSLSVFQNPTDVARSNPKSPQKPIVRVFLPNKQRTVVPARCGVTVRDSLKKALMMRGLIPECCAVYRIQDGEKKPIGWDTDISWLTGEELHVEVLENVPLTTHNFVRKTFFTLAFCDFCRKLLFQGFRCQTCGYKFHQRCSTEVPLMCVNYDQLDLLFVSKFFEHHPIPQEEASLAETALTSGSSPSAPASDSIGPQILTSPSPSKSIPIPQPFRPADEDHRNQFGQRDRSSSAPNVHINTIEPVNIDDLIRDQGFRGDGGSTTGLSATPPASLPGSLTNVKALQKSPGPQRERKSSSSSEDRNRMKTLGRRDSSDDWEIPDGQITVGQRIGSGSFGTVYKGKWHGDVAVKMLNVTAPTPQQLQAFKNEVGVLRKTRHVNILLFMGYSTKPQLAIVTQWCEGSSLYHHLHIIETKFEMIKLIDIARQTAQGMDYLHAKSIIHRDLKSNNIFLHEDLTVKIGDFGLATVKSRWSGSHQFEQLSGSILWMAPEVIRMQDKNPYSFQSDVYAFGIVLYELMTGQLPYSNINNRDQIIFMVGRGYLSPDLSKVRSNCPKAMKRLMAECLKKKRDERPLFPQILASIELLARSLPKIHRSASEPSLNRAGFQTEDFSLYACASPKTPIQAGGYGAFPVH
Described as above. As to conditions: ATP 10 μM; for inhibition at 10 µM: 10 µM compound, duplicate, read-out: In vitro protein kinase inhibition values (%) B-Raf^WT.

Assay [2] deals with human melanoma cell line (A375). The assay is described as follows: In vitro cytotoxic activity (MTT assay). The class given is cell-based. Particulars: for IC50: Homo sapiens, A-375, A375 cells, read-out: IC50 values (μM) against A375. How it is done:
Melanoma skin cancer cell line (A375) of American Type Culture Collection (ATCC) was obtained from Korean Cell Line Bank (KCLB). The A375 cells were cultured in Dulbecco’s modified eagle’s medium (DMEM) (GenDepot) supplemented with 1% penicillin–streptomycin and 10% fetal bovine serum (FBS). The cells were maintained at 37 °C in a 5% CO2 with a 95% humid atmosphere. MTT assay, analysis of the cell cycle distribution, apoptosis analysis, and statistical analysis were carried out following known standard protocols adopted by our team earlier (Son et al. [2023]). […]

The next assay deals with T3, ERK2/MAPK1 (Homo sapiens, UniProt P28482).
T3 construct: purchased Reaction Biology Co. (Kinase HotSpot service)
T3 sequence (P28482 whole entry): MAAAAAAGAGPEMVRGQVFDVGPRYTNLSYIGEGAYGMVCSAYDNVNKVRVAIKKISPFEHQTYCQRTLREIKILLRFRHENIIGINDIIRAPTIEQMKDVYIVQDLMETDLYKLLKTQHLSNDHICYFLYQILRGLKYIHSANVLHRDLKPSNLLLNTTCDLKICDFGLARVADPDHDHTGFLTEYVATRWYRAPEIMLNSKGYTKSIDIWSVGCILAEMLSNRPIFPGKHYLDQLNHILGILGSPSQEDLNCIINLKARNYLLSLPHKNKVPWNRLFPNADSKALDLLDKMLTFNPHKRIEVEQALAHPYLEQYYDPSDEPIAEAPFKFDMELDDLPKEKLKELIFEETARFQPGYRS
The assay is described as follows: Kinase selectivity assay, one-point. The class given is biochemical. Particulars: 10 µM compound, duplicate, ATP 10 μM. How it is done:
(§1) The in vitro kinase inhibitory assays (both one-point and ten-point assays) were performed at Reaction Biology Co. (Malvern, PA, USA). Kinase HotSpot service was used for screening the tested derivatives. The experiment protocol is previously described in detail (Elkamhawy et al. [2016]).
(§2) No significant inhibition was observed over the other tested kinases.

A further assay deals with T4, TRKB (Homo sapiens, UniProt Q16620).
T4 construct: purchased Reaction Biology Co. (Kinase HotSpot service)
T4 sequence (Q16620 32-822): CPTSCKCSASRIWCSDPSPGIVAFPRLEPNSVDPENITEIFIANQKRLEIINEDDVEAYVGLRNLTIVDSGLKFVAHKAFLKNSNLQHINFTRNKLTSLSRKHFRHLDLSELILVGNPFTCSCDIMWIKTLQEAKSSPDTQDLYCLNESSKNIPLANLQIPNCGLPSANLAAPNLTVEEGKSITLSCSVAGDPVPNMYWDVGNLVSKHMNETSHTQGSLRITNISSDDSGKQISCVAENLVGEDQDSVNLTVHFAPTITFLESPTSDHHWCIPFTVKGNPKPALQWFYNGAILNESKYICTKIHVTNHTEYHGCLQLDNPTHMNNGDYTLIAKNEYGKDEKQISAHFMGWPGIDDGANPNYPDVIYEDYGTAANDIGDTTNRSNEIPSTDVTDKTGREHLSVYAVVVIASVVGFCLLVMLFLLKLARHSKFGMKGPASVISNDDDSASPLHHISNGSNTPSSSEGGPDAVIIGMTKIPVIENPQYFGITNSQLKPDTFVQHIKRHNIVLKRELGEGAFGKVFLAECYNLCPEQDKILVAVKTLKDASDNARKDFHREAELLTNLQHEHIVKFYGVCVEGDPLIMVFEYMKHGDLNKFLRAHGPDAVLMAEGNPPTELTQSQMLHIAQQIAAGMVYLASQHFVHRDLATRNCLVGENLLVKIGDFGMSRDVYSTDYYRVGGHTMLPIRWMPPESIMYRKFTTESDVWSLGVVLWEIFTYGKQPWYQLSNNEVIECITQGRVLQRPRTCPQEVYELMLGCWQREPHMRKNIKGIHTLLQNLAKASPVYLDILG
The assay can be described thus: Kinase selectivity assay, one-point. The class given is biochemical. Particulars: 10 µM compound, duplicate, ATP 10 μM. How it is done: as §1, §2

The next assay deals with T5, FGFR1 (Homo sapiens, UniProt P11362).
T5 construct: purchased Reaction Biology Co. (Kinase HotSpot service)
T5 sequence (P11362 22-822): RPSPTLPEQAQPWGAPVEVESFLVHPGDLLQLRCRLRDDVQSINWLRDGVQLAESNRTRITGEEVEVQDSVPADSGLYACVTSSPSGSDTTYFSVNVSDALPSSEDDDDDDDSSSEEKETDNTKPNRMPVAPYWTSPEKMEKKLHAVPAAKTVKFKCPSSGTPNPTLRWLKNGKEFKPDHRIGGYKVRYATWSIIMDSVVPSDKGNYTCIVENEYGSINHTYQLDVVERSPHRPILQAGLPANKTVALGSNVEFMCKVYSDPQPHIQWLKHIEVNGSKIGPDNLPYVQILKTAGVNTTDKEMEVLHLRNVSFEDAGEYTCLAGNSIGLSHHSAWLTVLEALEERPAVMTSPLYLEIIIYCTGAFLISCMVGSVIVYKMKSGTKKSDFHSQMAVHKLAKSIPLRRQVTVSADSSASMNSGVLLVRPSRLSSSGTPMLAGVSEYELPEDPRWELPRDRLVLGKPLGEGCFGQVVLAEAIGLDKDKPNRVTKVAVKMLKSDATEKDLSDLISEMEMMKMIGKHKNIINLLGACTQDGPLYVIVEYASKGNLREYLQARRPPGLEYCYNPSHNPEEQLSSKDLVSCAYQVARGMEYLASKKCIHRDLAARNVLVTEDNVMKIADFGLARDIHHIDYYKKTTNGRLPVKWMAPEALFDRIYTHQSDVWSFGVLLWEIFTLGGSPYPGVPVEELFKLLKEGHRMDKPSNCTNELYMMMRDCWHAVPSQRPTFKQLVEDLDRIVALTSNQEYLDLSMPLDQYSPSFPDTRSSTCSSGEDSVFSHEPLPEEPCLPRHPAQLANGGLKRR
The assay can be described thus: Kinase selectivity assay, one-point. The class given is biochemical. As to conditions: 10 µM compound, duplicate, ATP 10 μM. The method, then: as §1, §2

The next assay addresses T6, mTOR/FRAP1 (Homo sapiens, UniProt P42345).
T6 construct: purchased Reaction Biology Co. (Kinase HotSpot service)
The assay can be described thus: Kinase selectivity assay, one-point. The class given is biochemical. As to conditions: 10 µM compound, duplicate, ATP 10 μM. The method, then: as §1, §2

Another assay has as its target T7, ROS/ROS1 (Homo sapiens, UniProt P08922).
T7 construct: purchased Reaction Biology Co. (Kinase HotSpot service)
The assay is described as follows: Kinase selectivity assay, one-point. Type of assay: biochemical. As to conditions: 10 µM compound, duplicate, ATP 10 μM. The method, then:
as §1, §2

A further assay deals with T8, ALK (Homo sapiens, UniProt Q9UM73).
T8 construct: purchased Reaction Biology Co. (Kinase HotSpot service)
T8 sequence (Q9UM73 19-1620): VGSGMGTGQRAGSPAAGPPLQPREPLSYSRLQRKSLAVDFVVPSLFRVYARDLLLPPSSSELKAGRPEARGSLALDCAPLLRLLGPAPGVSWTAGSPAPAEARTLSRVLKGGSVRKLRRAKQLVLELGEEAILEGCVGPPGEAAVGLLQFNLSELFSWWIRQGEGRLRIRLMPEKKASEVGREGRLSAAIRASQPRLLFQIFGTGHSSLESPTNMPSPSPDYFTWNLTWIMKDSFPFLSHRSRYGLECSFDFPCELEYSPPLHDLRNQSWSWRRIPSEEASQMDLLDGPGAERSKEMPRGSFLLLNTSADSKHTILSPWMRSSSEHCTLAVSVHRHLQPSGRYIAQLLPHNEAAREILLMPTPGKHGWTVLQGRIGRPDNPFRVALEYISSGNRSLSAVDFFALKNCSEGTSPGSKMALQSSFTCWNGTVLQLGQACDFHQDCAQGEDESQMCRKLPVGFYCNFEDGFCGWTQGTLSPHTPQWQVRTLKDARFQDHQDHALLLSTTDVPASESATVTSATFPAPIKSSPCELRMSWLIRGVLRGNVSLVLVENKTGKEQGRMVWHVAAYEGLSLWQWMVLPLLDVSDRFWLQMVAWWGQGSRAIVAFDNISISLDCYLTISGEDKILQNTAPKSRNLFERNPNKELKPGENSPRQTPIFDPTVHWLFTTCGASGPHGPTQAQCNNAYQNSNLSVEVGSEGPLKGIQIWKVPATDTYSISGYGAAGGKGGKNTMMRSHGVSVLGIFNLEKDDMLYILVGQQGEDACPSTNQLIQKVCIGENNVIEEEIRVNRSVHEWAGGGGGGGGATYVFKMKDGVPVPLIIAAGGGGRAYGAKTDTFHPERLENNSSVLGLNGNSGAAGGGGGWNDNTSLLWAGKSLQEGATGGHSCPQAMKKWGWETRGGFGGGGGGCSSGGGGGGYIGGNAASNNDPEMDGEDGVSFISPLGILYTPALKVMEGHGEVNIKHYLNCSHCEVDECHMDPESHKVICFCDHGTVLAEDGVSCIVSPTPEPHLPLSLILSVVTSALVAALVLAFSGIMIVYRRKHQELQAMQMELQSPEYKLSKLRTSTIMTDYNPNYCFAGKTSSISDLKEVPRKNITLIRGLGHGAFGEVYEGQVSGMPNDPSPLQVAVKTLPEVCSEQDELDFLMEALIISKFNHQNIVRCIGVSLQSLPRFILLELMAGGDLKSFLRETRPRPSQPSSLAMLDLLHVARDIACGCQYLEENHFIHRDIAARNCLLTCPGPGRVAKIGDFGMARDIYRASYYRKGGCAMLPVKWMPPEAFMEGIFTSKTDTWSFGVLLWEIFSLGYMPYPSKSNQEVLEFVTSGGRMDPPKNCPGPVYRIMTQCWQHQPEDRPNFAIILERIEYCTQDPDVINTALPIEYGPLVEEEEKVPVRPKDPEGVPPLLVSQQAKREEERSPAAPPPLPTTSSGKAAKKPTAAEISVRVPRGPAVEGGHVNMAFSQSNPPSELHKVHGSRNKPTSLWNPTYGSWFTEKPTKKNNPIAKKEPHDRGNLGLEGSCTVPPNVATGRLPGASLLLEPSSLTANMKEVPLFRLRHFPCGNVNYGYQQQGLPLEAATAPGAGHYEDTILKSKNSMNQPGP
The assay can be described thus: Kinase selectivity assay, one-point. Type of assay: biochemical. As to conditions: 10 µM compound, duplicate, ATP 10 μM. How it is done: as §1, §2

The test system of assay [3] is melanoma cell line A375. The assay can be described thus: Apoptosis analysis (PE-Annexin V / DAPI). Particulars: dosage close to IC50, dot plot.
The test system of assay [4] is Raf kinase enzymes (B-Raf^WT, B-Raf^V600E, and c-Raf). The assay is described as follows: One-point kinase assay, summary across Raf kinases. As to conditions: 10 μM compound, ATP 10 μM, span over B-Raf^WT. The class given is biochemical. The method, then: as §1
To evaluate the new structural design of our compounds (9a–i), the biochemical activity was evaluated against Raf kinase enzymes (B-Raf^WT, B-Raf^V600E, and c-Raf) in one-point dose (10 μM) at duplicate mode using ATP concentration 10 μM. The results are presented in Table 2 and expressed in % inhibition.

Setting [5] is: 10-dose, threefold serial dilution from 20 μM.

T1 sequence (P15056 whole entry V600E): as the sequence (P15056 whole entry) above, with V600E counted along it

As to `CNC(=O)c1cc2ccc(CCNC(=O)Nc3cc(C(F)(F)F)c(Cl)cc3OC)cc2cn1` [Compound 4], on Raf kinase enzyme, the IC50 is 80 nM.
For `CNC(=O)c1cc(Oc2ccc3c(C(=O)Nc4cccc(OC(F)F)c4)cccc3c2)ccn1` [Compound 9a, 4-((5-((3-(Difluoromethoxy)phenyl)carbamoyl)naphthalen-2-yl)oxy)-N-methylpicolinamide], the inhibition at 10 µM was found to be 99.8% on c-Raf; 100% at B-Raf^V600E; 99.4% at B-Raf^WT; 0% at ERK2/MAPK1; 17.3% at TRKB; 86.2% against FGFR1. Moreover, the inhibition at 10 µM at mTOR/FRAP1 stood at 0%; at ROS/ROS1 it was 0%; against ALK, 8.23%. Moreover, the IC50 against c-Raf (setting [5]) is 2.86 nM; on B-Raf^V600E (setting [5]), 18 nM; against B-Raf^WT (setting [5]), 49.7 nM; in assay [2], 0.12 ± 0.013 µM. For the same compound, the “G0/G1 phase Percent” value with melanoma cell line A375 [1] was 18.92%. Moreover, the “G2/M phase Percent” value in the assay on melanoma cell line A375 [1] was determined as 6.45%. Also, in the assay with melanoma cell line A375 [1], the “S phase Percent” value is reported as 71.83%. In the assay on melanoma cell line A375 [3], this compound registered a N quadrant cells of 6.69%. Also, the “early apoptosis (E.A) cells” value with melanoma cell line A375 [3] worked out at 9.11%. In the assay with melanoma cell line A375 [3], the “late apoptosis (L.A) cells” value is 3.54%. Also, the “live (L) cells” value in the assay on melanoma cell line A375 [3] is recorded as 80.66%.
Regarding `CNC(=O)c1cc(Oc2ccc3c(C(=O)Nc4ccc(C(C)C)cc4)cccc3c2)ccn1` [Compound 9b, 4-((5-((4-Isopropylphenyl)carbamoyl)naphthalen-2-yl)oxy)-N-methylpicolinamide], the inhibition at 10 µM was found to be 99.7% at c-Raf, 98.4% on B-Raf^V600E and 98.4% on B-Raf^WT. Further, the IC50 in assay [2] amounted to 0.17 ± 0.012 µM.
Regarding `CNC(=O)c1cc(Oc2ccc3c(C(=O)Nc4ccc(I)cc4)cccc3c2)ccn1` [Compound 9c, 4-((5-((4-Iodophenyl)carbamoyl)naphthalen-2-yl)oxy)-N-methylpicolinamide], the inhibition at 10 µM at c-Raf turned out to be 98.9%; at B-Raf^V600E, 88.6%; at B-Raf^WT, 92.7%. Further, the 50% inhibitory concentration (IC50) in assay [2] is 0.67 ± 0.017 µM.
On the same counts, the results for `CNC(=O)c1cc(Oc2ccc3c(C(=O)Nc4ccc(OC)c(F)c4)cccc3c2)ccn1` [Compound 9d, 4-((5-((3-Fluoro-4-methoxyphenyl)carbamoyl)naphthalen-2-yl)oxy)-N-methylpicolinamide] are 99.6%, 98.2%, 97.4% and 0.54 ± 0.019 µM.
In the case of `CNC(=O)c1cc(Oc2ccc3c(C(=O)Nc4ccc(N5CCOCC5)c(F)c4)cccc3c2)ccn1` [Compound 9e, 4-((5-((3-Fluoro-4-morpholinophenyl)carbamoyl)naphthalen-2-yl)oxy)-N-methylpicolinamide], the inhibition at 10 µM on c-Raf turned out to be 76.3%; on B-Raf^V600E it was 24.9%; on B-Raf^WT, 42.1%. For the same compound, the “IC50 values (μM) against A375” value in assay [2] (A375 cells) was “weak cytotoxic activity”. The IC50 in assay [2] came out at 4.46 ± 0.024 µM. Besides, in assay [4], the “% inhibition across the tested Raf kinases” value was 24.93–76.30%.
With `CNC(=O)c1cc(Oc2ccc3c(C(=O)Nc4ccc(F)cc4)cccc3c2)ccn1` [Compound 9f, 4-((5-((4-Fluorophenyl)carbamoyl)naphthalen-2-yl)oxy)-N-methylpicolinamide], the values for the inhibition at 10 µM on c-Raf, on B-Raf^V600E and at B-Raf^WT were 96.5%, 75.8% and 74.7%, respectively. Further, the IC50 in assay [2] came out at 0.44 ± 0.008 µM.
On the same counts, the results for `CNC(=O)c1cc(Oc2ccc3c(C(=O)Nc4ccc(C)c(C)c4)cccc3c2)ccn1` [Compound 9g, 4-((5-((3,4-Dimethylphenyl)carbamoyl)naphthalen-2-yl)oxy)-N-methylpicolinamide] are 99.8%, 100%, 99.3% and 1.42 ± 0.013 µM.
For `CNC(=O)c1cc(Oc2ccc3c(C(=O)Nc4cc(C)cc(Br)c4)cccc3c2)ccn1` [Compound 9h, 4-((5-((3-Bromo-5-methylphenyl)carbamoyl)naphthalen-2-yl)oxy)-N-methylpicolinamide], in that order: 99.8%, 100%, 99.6% and 1.67 ± 0.032 µM.
For `CNC(=O)c1cc(Oc2ccc3c(C(=O)Nc4ccc(OC)c(Cl)c4)cccc3c2)ccn1` [Compound 9i, 4-((5-((3-Chloro-4-methoxyphenyl)carbamoyl)naphthalen-2-yl)oxy)-N-methylpicolinamide], in that order: 99.6%, 100%, 99.7% and 1.75 ± 0.021 µM.
As to `CNC(=O)c1cc(Oc2ccc(NC(=O)Nc3ccc(Cl)c(C(F)(F)F)c3)cc2)ccn1` [Sorafenib], in the assay on melanoma cell line A375 [1], the “G0/G1 phase Percent” value is 34.08%, the “G2/M phase Percent” value was found to be 13.41% and the “S phase Percent” value is on record as 49.72%. Besides, in the assay with melanoma cell line A375 [1] (listed as sorafenib), the “G0/G1 phase Percent” value is given as 34.08%, the “G2/M phase Percent” value was 13.41% and the “S phase Percent” value came out at 49.72%. Besides, in assay [2], the concentration for half-maximal inhibition (IC50) came out at 0.92 ± 0.018 µM. Besides, in the assay with melanoma cell line A375 [3], the N quadrant cells is on record as 12.49%, the “early apoptosis (E.A) cells” value is given as 4.03%, the “late apoptosis (L.A) cells” value is 4.34% and the “live (L) cells” value turned out to be 79.14%.
